# In patent publication US6617131B2, “Nucleic acid molecule encoding the potassium channel protein, KCNQ5” (Aventis Pharma Deutschland GmbH, priority 2000, dated 2003):
# What was measured:
# hKCNQ5 = target: T1, hKCNQ5 (Homo sapiens, UniProt Q9NR82); test: two-electrode voltage-clamp of KCNQ5 currents in Xenopus oocytes; assay type: cell-based
# T1 construct: A composite full-length cDNA construct was assembled from two overlapping cDNA clones and subcloned into the Xenopus expression vector pSGEM; expressed in transfected cells; host or cells: Xenopus laevis oocytes injected with in vitro transcribed capped cRNA (vector pSGEM)
# Source text: A, representative current traces from a KCNQ5 injected oocyte subjected to a pulse protocol that stepped the membrane potential from holding potential (−100 mV) to test pulses from −100 to +50 mV and back to holding potential. B, I-V relationships for KCNQ5 expressing oocytes (n=12) recorded using the protocol in A. C, tail current reversal potential of KCNQ 5 currents as a function of extracellular K^+ concentration. The dashed line is drawn according to the Nernst equation for a perfectly selective K^+ channel (n=5). D, effects of TEA, clofilium, quinidine, and chromanol 293 B on KCNQ 5 current. Superimposed currents were obtained during a 3 s depolarizing step from −100 mV to 0 mV, during the same experiment. […]
# Xenopus laevis oocytes were obtained from tricaine anaesthetized animals. […] Macroscopic currents were recorded 2-4 days after injection. […]
# The possible function of KCNQ5 as a potassium channel was addressed by electrophysiological analysis of Xenopus oocytes injected with KCNQ5 cRNA transcribed in vitro. Two to four days after injection novel currents were detected that were not observed in water-injected control oocytes. […] The two components of deactivation were determined at a repolarizing voltage of −100 mV following a 3s depolarizing step to +40 mV. […]
# KCNQ3 = KCNQ3 (Rattus norvegicus, UniProt O88944); conditions: as reported; cited from earlier work
# KCNQ2 = KCNQ2 (Homo sapiens, UniProt O43526); conditions: cited from earlier work
# KCNQ2, sequence (O43526 whole entry): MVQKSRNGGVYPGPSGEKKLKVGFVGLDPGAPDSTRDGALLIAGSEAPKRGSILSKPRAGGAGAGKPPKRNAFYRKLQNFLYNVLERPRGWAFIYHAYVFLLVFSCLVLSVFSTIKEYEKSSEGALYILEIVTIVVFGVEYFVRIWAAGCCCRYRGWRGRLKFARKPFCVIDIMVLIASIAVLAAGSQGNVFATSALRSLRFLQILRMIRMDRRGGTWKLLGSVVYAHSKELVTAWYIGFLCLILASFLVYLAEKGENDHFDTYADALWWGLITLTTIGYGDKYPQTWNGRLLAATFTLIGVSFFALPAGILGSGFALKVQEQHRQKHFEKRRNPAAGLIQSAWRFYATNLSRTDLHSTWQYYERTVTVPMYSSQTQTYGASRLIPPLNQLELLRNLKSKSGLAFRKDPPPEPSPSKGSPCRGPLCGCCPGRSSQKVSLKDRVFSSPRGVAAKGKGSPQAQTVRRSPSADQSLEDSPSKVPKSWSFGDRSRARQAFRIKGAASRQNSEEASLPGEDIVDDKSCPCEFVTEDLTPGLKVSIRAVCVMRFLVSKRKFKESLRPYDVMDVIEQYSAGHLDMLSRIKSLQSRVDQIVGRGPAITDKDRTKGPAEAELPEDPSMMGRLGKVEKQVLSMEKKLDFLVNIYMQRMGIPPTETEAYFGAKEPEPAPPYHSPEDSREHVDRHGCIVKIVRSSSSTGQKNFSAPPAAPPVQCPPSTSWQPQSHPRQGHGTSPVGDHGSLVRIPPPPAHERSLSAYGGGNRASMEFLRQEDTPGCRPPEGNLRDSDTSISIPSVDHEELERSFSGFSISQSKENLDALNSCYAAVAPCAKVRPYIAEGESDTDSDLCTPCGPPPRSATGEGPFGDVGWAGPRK
# T1 sequence (Q9NR82 whole entry): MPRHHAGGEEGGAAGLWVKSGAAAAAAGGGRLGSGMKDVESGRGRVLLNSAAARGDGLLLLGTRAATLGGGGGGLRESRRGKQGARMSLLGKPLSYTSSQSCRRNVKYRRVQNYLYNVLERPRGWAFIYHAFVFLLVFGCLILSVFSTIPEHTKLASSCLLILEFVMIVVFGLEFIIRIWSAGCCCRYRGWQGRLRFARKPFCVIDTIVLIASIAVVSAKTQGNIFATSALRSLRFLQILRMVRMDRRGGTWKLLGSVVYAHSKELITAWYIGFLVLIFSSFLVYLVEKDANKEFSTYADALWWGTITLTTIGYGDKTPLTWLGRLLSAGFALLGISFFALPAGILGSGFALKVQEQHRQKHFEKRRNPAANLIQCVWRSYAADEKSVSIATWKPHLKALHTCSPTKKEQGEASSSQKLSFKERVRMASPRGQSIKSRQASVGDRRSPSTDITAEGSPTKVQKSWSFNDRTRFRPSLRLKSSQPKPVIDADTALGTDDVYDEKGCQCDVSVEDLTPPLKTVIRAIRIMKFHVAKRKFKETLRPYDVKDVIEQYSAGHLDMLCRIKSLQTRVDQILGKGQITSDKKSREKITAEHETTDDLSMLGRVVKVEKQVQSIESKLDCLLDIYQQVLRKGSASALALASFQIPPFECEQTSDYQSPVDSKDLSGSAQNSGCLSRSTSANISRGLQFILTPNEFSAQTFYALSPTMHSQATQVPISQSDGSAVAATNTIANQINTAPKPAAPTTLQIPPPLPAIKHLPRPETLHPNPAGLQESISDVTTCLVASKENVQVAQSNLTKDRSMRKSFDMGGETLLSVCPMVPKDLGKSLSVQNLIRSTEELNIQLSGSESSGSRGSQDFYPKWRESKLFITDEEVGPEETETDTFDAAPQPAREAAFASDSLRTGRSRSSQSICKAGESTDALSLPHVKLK
# KCNQ3, sequence (O88944 whole entry): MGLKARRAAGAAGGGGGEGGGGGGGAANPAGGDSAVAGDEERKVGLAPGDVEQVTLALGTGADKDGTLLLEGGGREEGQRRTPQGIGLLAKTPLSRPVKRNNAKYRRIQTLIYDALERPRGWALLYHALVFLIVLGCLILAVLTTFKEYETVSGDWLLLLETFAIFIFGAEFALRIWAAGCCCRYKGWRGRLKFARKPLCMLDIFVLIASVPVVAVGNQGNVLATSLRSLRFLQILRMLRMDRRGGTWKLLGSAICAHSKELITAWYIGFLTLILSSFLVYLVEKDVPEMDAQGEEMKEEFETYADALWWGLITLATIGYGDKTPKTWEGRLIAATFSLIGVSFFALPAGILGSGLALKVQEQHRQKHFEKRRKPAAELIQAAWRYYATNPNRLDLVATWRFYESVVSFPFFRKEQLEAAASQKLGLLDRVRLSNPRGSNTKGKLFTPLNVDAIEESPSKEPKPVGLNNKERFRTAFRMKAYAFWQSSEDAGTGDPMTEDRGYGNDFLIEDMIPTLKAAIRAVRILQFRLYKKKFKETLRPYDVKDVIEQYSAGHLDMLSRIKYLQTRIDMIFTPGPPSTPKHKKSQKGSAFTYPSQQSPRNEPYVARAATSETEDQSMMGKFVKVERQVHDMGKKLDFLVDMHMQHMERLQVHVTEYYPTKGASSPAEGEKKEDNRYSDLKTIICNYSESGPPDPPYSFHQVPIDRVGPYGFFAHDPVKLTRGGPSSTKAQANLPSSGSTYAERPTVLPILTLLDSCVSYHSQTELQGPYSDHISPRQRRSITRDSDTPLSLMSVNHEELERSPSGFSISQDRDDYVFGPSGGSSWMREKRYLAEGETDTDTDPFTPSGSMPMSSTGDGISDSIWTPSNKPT
structure (smiles),measurement,setting,value
"CC[N+](CC)(CC)CC [TEA, tetraethylammonium]",sensitivity of KCNQ5 currents to the blocker,hKCNQ5,insensitive
same,sensitivity of KCNQ3 to the blocker,KCNQ3,insensitive
same,sensitivity of KCNQ2 to the blocker,KCNQ2,high sensitivity
C=C[C@H]1C[N@@]2CC[C@H]1C[C@@H]2[C@@H](O)c1ccnc2ccc(OC)cc12 [quinidine],block of KCNQ5 currents,"hKCNQ5; 300 μM, 3 s step from −100 mV to 0 mV",50%
CCCCCCC[N+](CC)(CC)CCCCc1ccc(Cl)cc1 [Clofilium],inhibition of KCNQ2,KCNQ2; 10 μM,little inhibition
